Measured values reported in article PMC9698773, “Design, Synthesis, Molecular Modeling, and Anticancer Evaluation of New VEGFR-2 Inhibitors Based on the Indolin-2-One Scaffold” (Pharmaceuticals, 2022).
“And” between values parts separate entries of the source, which are not always exact repeats. Identical values can stand only once.

Columns and labels:
HepG2 cells = experiment: Apoptosis analysis (Annexin V-FITC/PI, flow cytometry); type: cell-based, human; conditions: HepG2, 1.13 µM, 24 h
Method: The HepG2 cells were treated with 17a (1.13 µM for 24 h), and the apoptotic effect was determined using Annexin V-FITC/PI assay. […] In addition, 17a enhanced the necrosis percentage 4-fold more than the control.
The apoptotic ability of compound 17a to the HepG2 cells was assessed using Annexin V-FITC/PI dual staining by flow cytometric analysis, as shown in the Supplementary Materials. […]
4.2.3. Cell cycle analysis […]
4.2.4. Apoptosis analysis
Flow cytometry cell apoptosis analysis was used to investigate the apoptotic effect of the synthesized compounds. HepG2 cells were treated with compound 17a (1.13 μM) for 24 h, collected by trypsin, centrifuged, washed two successive times with PBS, suspended in 500 μL binding buffer, and double stained with 5 μL Annexin V‐FITC and 5 μL PI in the dark at room temperature for 15 min. The stained cells were measured using a BD FACSCalibur™ Flow Cytometer and analyzed using Flowing software. […]

BAX = BAX expression assay (Western blot); type: cell-based, human; conditions: HepG2, 1.13 µM, 24 h
Method: The expression of BAX and Bcl-2 were evaluated in the HepG2 cells after treatment with 1.13 µM of compound 17a for 24 h. The Western blotting technique was utilized to determine the levels of Bax and Bcl-2 proteins and estimate the Bax/Bcl-2 ratio.
The expression of apoptotic BAX and antiapoptotic Bcl-2 proteins in the liver HepG2 cells treated with 1.13 μM of 17a was determined using Western blot analysis, as described in the Supplementary Materials. […]
Casp3 F: 5ʹ‐ […] ‐3ʹ
Casp3 R: 5ʹ‐ […] ‐3ʹ […]
β‐actin F: 5ʹ‐[…]‐3ʹ […]
β‐actin R: 5ʹ‐[…]‐3ʹ […]
4.2.6. Bax and Bcl‐2 expression assay
The expression of BAX and Bcl‐2 proteins were determined using Western blot anal‐ ysis. In brief, HepG2 cells were treated with control or with the synthesized compound 17a (1.13 μM). Then cells were lysed in 250 μL precold lysis buffer (pH 7.4: Tris‐Base [10 mM], NaCl [100 mM], ethylenediaminetetraacetic acid [EDTA, 25 mM], ethylene glycol bis (2‐ aminoethyl) tetraacetic acid [EGTA, 25 mM], 1% [v/v] NP‐40, and 1% [v/v] Triton X‐100) supplemented with 1:350 protease:phosphatase inhibitors cocktail (Sigma). The cells were immediately frozen at −20°C for 1.5 hours for further analysis, collected by cell scraper, sonicated 3 × 10 seconds, and centrifuged (13000 rpm, 15 minutes). Total protein concentrations in the supernatant were colorimetrically determined using the Pierce 660 nm Protein Assay method (Thermo Fisher Scientific, Rockford, IL), with BSA as the stand‐ ard. Equal amounts of protein (25 μg) samples were mixed with SDS‐loading buffer (pH 6.8: Tris‐HCl [700 mM], dithiothreitol [DTT, 600 mM], sodium dodecyl sulfate [SDS, 12%], glycerol [60%], and bromophenol blue [0.012%]), denatured by boiling at 95°C for 10 minutes, allowed to cool on ice for 15 minutes, vigorously vortexed for 30 seconds, loaded into SDS‐polyacrylamide gel and separated by an electrophoresis unit (Cleaver Scientific Ltd, UK), and transferred onto polyvinylidene fluoride membranes (Bio‐Rad) for 35 minutes using a Trans‐Blot SD semi‐dry transfer cell (Bio‐Rad) at 250 mA and 22 V. Mem‐ branes were blocked with 5% (w/v) blotting grade dry milk (Bio‐Rad) in Tris‐buffered saline/Tween‐20 (TBS‐T) (pH 7.5: Tris‐base [20 mM], NaCl [150 mM], and 0.05% [v/v] Tween‐ 20) while shaken for 1.5 hour at RT, and then incubated with the corresponding primary antibody against BAX (Biovision, USA) and Bcl‐2 (Bioimaging, system, syngene, UK) for 9‐10 hours at 4°C in a humidified chamber. […] Means of the detected blot intensities were then quantified, analyzed by the combined Bio‐Rad Image Lab soft‐ ware and their corresponding background subtracted, with normalization to the corre‐ sponding bands density of β‐actin as the sampling loading control. […]

Compound: O=C1Nc2ccccc2C1=Nc1ccc(C(=O)NNC(=S)Nc2ccccc2)cc1 [Compound 17a, 2-(4-((2-Oxoindolin-3-ylidene)amino)benzoyl)-N-phenylhydrazinecarbothioamide]
- Apoptosis Early (HepG2 cells): 33.86%
- Apoptosis Late (HepG2 cells): 7.99%
- Apoptosis Total (HepG2 cells): 46.38%
- Necrosis (HepG2 cells): 4.53%
- increase of necrosis percentage versus control (HepG2 cells): 4 fold
- increase of BAX expression versus control (BAX): 2.69 fold and 2.7 fold
- increase of BAX/Bcl-2 ratio versus control (BAX): 5 fold
- Protein Expression (Normalized to β-Actin) BAX (BAX; control 0.175): 0.472
- BAX/Bcl-2 Ratio (BAX; control 0.41): 2.06
